Results from patent US5189050A, “Fermentation analogs of Virginiamycin M1 to treat panic and anxiety disorder” (Merck & Co., Inc., priority 1991, dated 1993).

Tests used:
[1] = system: CCK-A receptors; settings: cited from earlier work
[2] = system: CCK-B receptors; settings: cited from earlier work
[3] = system: stomach gastrin receptor; settings: cited from earlier work
[4] = crude rat brain synaptosomal fraction (title of cited paper); cited from earlier work
[5] = target: T1, Pancreatic CCK Receptor (Rattus norvegicus, UniProt P30551); assay: Pancreatic cholecystokinin receptor binding (125I-CCK-8, rat pancreas membranes); settings: for IC50: Pancreatic CCK Receptor Binding, rat pancreas, 125I-CCK-8, 37° C., 30 minutes; for effect on the 125I-CCK receptor binding assay: added protease inhibitors
T1 construct: homogenzing a gram of fresh rat pancreas tissue; from tissue; host or cells: fresh rat pancreas membranes
T1 sequence (P30551 1-444): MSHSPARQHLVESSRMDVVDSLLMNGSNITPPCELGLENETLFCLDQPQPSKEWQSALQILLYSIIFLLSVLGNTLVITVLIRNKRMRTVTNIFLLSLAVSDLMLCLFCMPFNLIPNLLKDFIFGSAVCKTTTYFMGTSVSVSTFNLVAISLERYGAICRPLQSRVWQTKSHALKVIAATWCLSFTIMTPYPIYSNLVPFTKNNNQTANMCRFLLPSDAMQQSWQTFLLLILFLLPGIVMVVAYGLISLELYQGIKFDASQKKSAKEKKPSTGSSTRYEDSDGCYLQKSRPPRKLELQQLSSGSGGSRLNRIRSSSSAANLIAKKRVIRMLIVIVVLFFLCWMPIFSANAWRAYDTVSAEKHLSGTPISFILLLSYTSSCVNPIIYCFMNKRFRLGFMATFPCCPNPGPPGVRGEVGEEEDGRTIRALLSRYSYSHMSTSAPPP
Protocol: Pancreatic Cholecystokinin Receptor Binding Assay
Radiolabeled CCK-8 was purchased from New England Nuclear as ^125 I-CCK-8. Receptor binding was performed according to Innis and Snyder Proc. Natl. Acad. Sci., 77, 6917 (1980), with the minor modification of adding the additional protease inhibitors, phenylmethane sulfonyl fluoride (PMSF) and o-phenanthroline, which have no effect on the ^125 I-CCK receptor binding assay. All assays were performed in triplicate. Pancreatic receptor membranes were prepared by homogenzing a gram of fresh rat pancreas tissue in 30 ml TRIS-HCl (50 mM), pH 7.7 using a Brinkman polytron PT10 (Brinkman). The homogenate was washed twice and collected by centrifugation at 48,000× g at 4° C. for 10 minutes. The membranes were resuspended in assay buffer consisting of 5 mM dithiothieitol, 0.1 mM bacitiacin, 5 mM MgCl2 "H2 O, 0.2% heat denatured BSA, 1.2 mM PMSF and 0.5 mM O-phenanthroline at a concentration of 100 ml per gram of pancreas. […] The reaction mixtures were mixed briefly and placed in a 37° C. water bath with gentle shaking for 30 minutes. The reaction mixtures were then diluted with 4 ml of ice-cold TRIS buffer, pH 7.7, containing 1 mg/ml bovine serum albumin and immediately filtered in Watman G F/B filters. The filters were washed with 3×4 ml of the same buffer and the radioactivity associated with the filters was counted in a Beckman 5500 gamma counter. Broths were prepared by adding two volumes of acetone to original broth; supernatants were freeze dried after centrifugation at 1500 g for 10 minutes. The dried samples were then brought up in methanol/H2 O (1:1) and ready for assay.

[6] = system: gram-positive bacteria; settings: cited from earlier work

## CSCC[C@H](NC(=O)[C@@H](N)Cc1c[nH]c2ccccc12)C(=O)N[C@@H](CC(=O)O)C(=O)N[C@@H](Cc1ccccc1)C(N)=O [CCK-4]
[1]
  affinity for CCK-A receptors: lower affinity
[2]
  affinity for CCK-B receptors: high affinity
[3]
  potency at stomach gastrin receptor: minimum fully potent CCK sequence

## CSCC[C@H](NC(=O)[C@H](Cc1ccc(O)cc1)NC(=O)[C@@H](N)CC(=O)O)C(=O)NCC(=O)N[C@@H](Cc1c[nH]c2ccccc12)C(=O)N[C@@H](CCSC)C(=O)N[C@@H](CC(=O)O)C(=O)N[C@@H](Cc1ccccc1)C(N)=O [CCK-8d]
[1]
  affinity for CCK-A receptors: lower affinity

## CSCC[C@H](NC(=O)[C@H](Cc1ccc(OS(=O)(=O)O)cc1)NC(=O)[C@@H](N)CC(=O)O)C(=O)NCC(=O)N[C@@H](Cc1c[nH]c2ccccc12)C(=O)N[C@@H](CCSC)C(=O)N[C@@H](CC(=O)O)C(=O)N[C@@H](Cc1ccccc1)C(N)=O [CCK-8s, H-Asp-Tyr(SO3 H)-Met-Gly-Trp-Met-Asp-Phe-NH2]
[4]
  half-life: less than 1 hour
[1]
  affinity for CCK-A receptors: high affinity
[2]
  affinity for CCK-B receptors: high affinity

## CC1=C\C=C\C(=O)Cc2nc(co2)C(=O)N2CCC=C2C(=O)O[C@H](C(C)C)[C@H](C)/C=C/C(=O)NC\C=C\1 [Compound III]
[5]
  IC50: > 10 µM

## CC1=C\C=C\[C@H](O)Cc2nc(co2)C(=O)N2CCC=C2C(=O)O[C@H](C(C)C)[C@H](C)/C=C/C(=O)NC\C=C\1 [Compound II]
[5]
  IC50: > 10 µM

## CC1=C\C=C\[C@@H](O)Cc2nc(co2)C(=O)N2CCC=C2C(=O)O[C@H](C(C)C)[C@H](C)/C=C/C(=O)NC\C=C\1 [Compound I]
[5]
  IC50: > 10 µM

## CC1=C\[C@@H](O)CC(=O)Cc2nc(co2)C(=O)N2CCC=C2C(=O)O[C@H](C(C)C)[C@H](C)/C=C/C(=O)NC\C=C\1 [Virginiamycin M1]
[5]
  IC50: > 100 µM
[6]
  antibacterial specificity and action: generally specific for gram-positive bacteria and prevent cell multiplication

## c1cnc2c(c1)ccc1cccnc12 [o-phenanthroline]
[5]
  effect on the 125I-CCK receptor binding assay: no effect

## CSCC[C@H](NC(=O)[C@H](Cc1c[nH]c2ccccc12)NC(=O)CCNC(=O)OC(C)(C)C)C(=O)N[C@@H](CC(=O)O)C(=O)N[C@@H](Cc1ccccc1)C(N)=O [pentagastrin]
[2]
  affinity for CCK-B receptors: high affinity

## O=S(=O)(F)Cc1ccccc1 [phenylmethane sulfonyl fluoride (PMSF), phenylmethane sulfonyl fluoride]
[5]
  effect on the 125I-CCK receptor binding assay: no effect

## gastrin
[1]
  affinity for CCK-A receptors: lower affinity
